Laboratory results from article PMC7554977, “Antimicrobial Peptides with Enhanced Salt Resistance and Antiendotoxin Properties” (International Journal of Molecular Sciences, 2020).
Like-named read-outs stand apart in the source and are kept apart here.

Tests used:
[1] = tested on: Gram-positive and Gram-negative bacteria; format: cell-based
Description: (§1) Escherichia coli strain (ATCC 25922), Staphylococcus aureus sp. strain (ATCC 25923), Pseudomonas aeruginosa Migula strain (ATCC 27853) and Acinetobacter sp. (BCRC number 14B0100) were used to test the antibacterial activity of the peptides. All bacteria were purchased from Food Industry Research and Development Institute (Hsinchu, Taiwan), and Acinetobacter sp. is multiresistant to Ampicillin, Cefazolin, Cefoxitin, Ceftazidime, Ceftriaxone, Ciprofloxacin, Penicillin, Tetracycline and Imipenem. Bacteria were cultured in sterilized MH (Müller−Hinton) broth at 200 rpm and 37 °C for 8 h. After 8 h of culture, the concentrations of the inoculums were determined by measuring absorbance of optical density at 600 nm (OD 600 = 1, equal to approximately 10^8 CFU/mL) with Ultrospec 2100 pro UV−Visible spectrophotometer (Biochrom Ltd., Cambridge, UK)).
(§2) The antibacterial activities were determined by the standard broth microdilution method of the National Committee for Clinical Laboratory Standards with the MH and LYM broth. The LYM broth contains 5.4 mM KCl, 5.6 mM Na2HPO4, 0.5 mM MgSO4, and 1.0 mM sodium citrate. In addition, 0.4 mg of ZnCl2, 2.0 mg of FeCl3·6H2O, 0.1 mg of CuSO4·5H2O, 0.1 mg of MnSO4·H2O, 0.1 mg of Na2B4O7·10H2O, 700 mg of amino acid mixtures without tryptophan (Clontech), and 20 mg of L-tryptophan were added per liter of medium. A vitamin mixture (100X, Sigma) and glucose at final concentration of 2% were also added. We made 1 µL peptide solutions (ranging from 3200 µg/mL to 100 µg/mL in serial dilution) and mixed with 99 µL inoculum (5 × 10^5 CFU/mL) in a polypropylene 96-well plate. We measured the turbidity at OD 600 nm by ELISA plate reader (Thermo Max, Molecular Devices, Sunnyvale, CA, USA). The absorbance of culture medium and inoculum suspension without peptides were used as the negative and positive control, respectively. The MIC value is the lowest concentration of peptide at which there is no obvious growth (equal or more than 90%). […] All peptides were tested in triplicate.

[2] = tested on: Gram-negative and Gram-positive bacteria; details: cited from earlier work
Description: Problems such as salt sensitivity, cost of synthesis, bioavailability, and stability have limited the therapeutic applications of antimicrobial peptides. Among these problems, salt sensitivity is directly related to the microbicidal mechanism of antimicrobial peptides. […] Similar problems have also been found with other antimicrobial peptides. || Recently, solution structures of S1 (Ac-KKWRKWLAKK-NH2) and S1-Nal-Nal (Ac-KKWRKWLAKKNal-Nal-NH2) in complex with LPS micelles have been reported. Both S1 and S1-Nal-Nal bound to LPS through the hydrophilic surface of their helices to the negatively charged region of LPS. S1-Nal-Nal further inserted deeper into the hydrophobic core of LPS micelles and created better hydrophobic interactions of its C-terminal β-naphthylalanine end-tags with the lipid A motif of LPS. The LPS-induced inflammation might then be prohibited. Moreover, a strategy was developed to increase salt resistance and L ... || To investigate the amphipathic helix–AGP–hydrophobic helix on the antimicrobial and neutralization activities of LPS, two peptides KR12 and RW6 were used for the N-terminal and C-terminal helices. […] Sequences of the designed peptides are listed in Table 1 and their helical wheel analyses ar ...

[3] = tested on: LPS (interaction between LPS and factor C); test: Limulus amebocyte lysate (LAL) assay, LPS binding and neutralization; format: biochemical, Limulus Polyphemus; details: peptide 64 μg/mL; CSE 5 EU; absorbance 405 nm, 37 °C; triplicate
Description: The ability of binding and neutralizing LPS in vitro was measured by the LAL assay which is well-known as the most sensitive and specific method.
The abilities of designed peptides to bind and neutralize LPS were assessed using Limulus amebocyte lysate (LAL) assay (Cape Cod Inc., East Falmouth, MA, USA). LAL is an extract of amebocytes from the Atlantic horseshoe crab Limulus Polyphemus. LAL reacts with lipopolysaccharide (LPS) from bacteria. Different concentrations (5, 4, 2, 1, 0.5 EU) of control standard LPS (CSE) were mixed with LAL reagent water at the same volume of 25 μL to make a standard curve. The samples of 25 μL of different peptide concentrations (128, 64, 32, 16, 8 μg/mL) were mixed with 25 μL CSE (5 EU) in a 96-well plate. A portion of 50 μL of pyrochrome reagent was added to the wells immediately. The absorbance at 405 nm was measured by microplate reader at 37 °C every minute until 25 min.

[4] = tested on: Acinetobacter sp. (BCRC number 14B0100); format: cell-based; details: MH and LYM media
Description: as §1, §2

Q: Which MIC ([1]; 8 h) does the source give for “Ac-KRIVQRIKDFLRAGPRRLVRI-NH2 [KR12AGPVR6]” here?
A: The MIC was 4~32 μg/mL.

Q: For WRWWRR [WR6], which Antimicrobial activities [2] is on record?
A: The Antimicrobial activities was “moderate antimicrobial activities”.

Q: With “Ac-KRIVQRIKDFLR-NH2 [KR12, reference compound]” as the substance, how does the “LPS neutralization, inhibition in LAL assay” value [3] read?
A: The value was “less than 25%”.

Q: And the Antimicrobial activities [2]?
A: The Antimicrobial activities was “possess antimicrobial activities”.

Q: What about the “Effectiveness against Acinetobacter sp. compared with the other three bacteria strains” value [4] of the same substance?
A: Its value is “more effective”.

Q: With “Ac-KRIVQRIKDFLRAGPRRWWRW-NH2 [KR12AGPWR6]” as the substance, how does the MIC ([1]; 8 h) read?
A: The MIC was 2~4 μg/mL.

Q: With Ac-RRWWRW-NH2 [RW6] as the substance, how does the “LPS neutralization, inhibition in LAL assay” value [3] read?
A: Its value is “less than 25%”.

Q: What about the MIC ([1]; 8 h) of the same substance?
A: Its MIC is 8~32 μg/mL.

Q: What about the “MIC (antibacterial activity)” value ([1]; LYM broth with >100 mM NaCl added, triplicate) of the same substance?
A: The value was “lost its antibacterial activity”.

Q: And the MIC ([1]; MH broth, inoculum 5 × 10^5 CFU/mL, OD 600 nm, triplicate)?
A: The MIC was “lost its antibacterial activity”.

Q: With AKRHHGYKRKFH-NH2 [Peptide P-113] as the substance, how does the “Efficacy in high salt conditions” value ([2]; high salt conditions) read?
A: Its value is “greatly reduced”.
